Assay [1] concerns NQO1 specific enzyme activity in BEAS-2B cells (marker for NRF2 activation). The assay can be described thus: BEAS-2B NQO1 MTT Assay. The following applies: Homo sapiens, compound incubated 48 hours, read-out: EC50 (NQO1 specific enzyme activity induction). In kind it is cell-based. Summed up:
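BEAS-2B cells treated with compound for 48 h at 37 °C, then lysed; NQO1 activity in lysates measured kinetically by MTT reduction at A570 over 30 min. pEC50 from 3-parameter fit of ΔOD/min versus log concentration; lysate also taken for Cell Titer Glo.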

Assay [2] addresses T1, full length Keap1 protein / full length NRF2 protein (Homo sapiens, UniProt Q14145).
T1 construct: full length NRF2 protein and full length Keap1 protein (Keap1 exists a dimer) are used; His
The experiment in a line: NRF2-Keap1 TR-FRET Assay. It is filed as binding. The following applies: 25 nM Keap1-FlagHis and 50 nM biotin-NRF2 added. Summed up: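 Full-length Keap1-FlagHis preincubated with compound 2.25 h at 37 °C, then biotin-NRF2 added for 1.25 h at 4 °C, in Tris pH 8.0 with MgCl2, NaCl, BSA, DTT, CHAPS. TR-FRET 665/615 nm ratio normalised to with- and without-protein 1% DMSO controls; pIC50 from four-parameter fit.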

The record followed here is patent publication US10364256B2 (GlaxoSmithKline Intellectual Property Development Limited, priority 2015, dated 2019).

T1 sequence (Q14145 whole entry): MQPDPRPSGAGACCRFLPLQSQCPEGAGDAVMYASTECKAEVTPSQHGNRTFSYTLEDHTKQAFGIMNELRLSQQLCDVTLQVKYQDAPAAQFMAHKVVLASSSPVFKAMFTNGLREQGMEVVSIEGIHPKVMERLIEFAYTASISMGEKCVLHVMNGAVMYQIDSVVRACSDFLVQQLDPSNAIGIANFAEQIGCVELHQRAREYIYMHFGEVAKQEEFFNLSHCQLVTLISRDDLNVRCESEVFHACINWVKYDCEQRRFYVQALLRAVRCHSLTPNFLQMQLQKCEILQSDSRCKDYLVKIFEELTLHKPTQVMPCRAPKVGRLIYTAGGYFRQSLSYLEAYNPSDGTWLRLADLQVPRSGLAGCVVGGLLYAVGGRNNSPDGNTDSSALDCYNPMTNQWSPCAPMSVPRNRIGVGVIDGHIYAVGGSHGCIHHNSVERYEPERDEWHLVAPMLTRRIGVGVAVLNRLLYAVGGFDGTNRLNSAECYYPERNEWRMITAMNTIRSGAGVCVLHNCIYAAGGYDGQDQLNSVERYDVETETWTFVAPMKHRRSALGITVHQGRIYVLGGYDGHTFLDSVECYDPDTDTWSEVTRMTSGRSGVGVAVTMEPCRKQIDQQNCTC

As a reminder, the EC50 is the concentration needed to bring the measured effect to its halfway point. As a reminder, the IC50 is the point on the concentration scale where inhibition reaches its midpoint. As to `CCC[C@@H]1CO[C@@H](C)CN1C(=O)c1cccc(-c2cccc(-n3ncc(C(=O)O)c3C3CC3)c2)c1F` [Example 45, 5-cyclopropyl-1-(3-{2-fluoro-3-[(2S,5R)-2-methyl-5-propylmorpholine-4-carbonyl]phenyl}phenyl)-1H-pyrazole-4-carboxylic Acid], the EC50 in assay [1] was 0.1 to 1 µM. Further, in assay [2], the IC50 is 0.1 to 1 µM.
In the case of `CC1CC(C)CN(C(=O)c2cccc(-c3cccc(-n4ncc(C(=O)O)c4C4CC4)c3)c2F)C1` (centres unmarked) [Example 53, 5-Cyclopropyl-1-[3′-(3,5-dimethyl-piperidine-1-carbonyl)-2′-fluoro-biphenyl-3-yl]-1H-pyrazole-4-carboxylic Acid], the EC50 in assay [1] was 0.1 to 1 µM. The same compound showed an IC50 in assay [2] of 0.1 to 1 µM.
For `CCC[C@@H]1CCCCN1C(=O)c1cccc(-c2cccc(-n3ncc(C(=O)O)c3C3CC3)c2)c1F` [Example 54e, 5-Cyclopropyl-1-{3-[2-fluoro-3-((2-S)-2-propylpiperidine-1-carbonyl)phenyl]phenyl}-1H-pyrazole-4-carboxylic Acid], in assay [1], the EC50 lay in the range of 0.1 to 1 µM. The same compound yielded an IC50 in assay [2] of 1 to 10 µM.
As for `CCC[C@@H]1CCCCN1C(=O)c1cccc(-c2cccc(-n3ncc(C(=O)O)c3CCc3cn(C)nn3)c2)c1F` [Example 55, (R)-1-(2′-Fluoro-3′-(2-propylpiperidine-1-carbonyl)-[1,1′-biphenyl]-3-yl)-5-(2-(1-methyl-1H-1,2,3-triazol-4-yl)ethyl)-1H-pyrazole-4-carboxylic Acid], in assay [1], the EC50 fell in the range of 1 to 10 µM. In assay [2], this compound came in with an IC50 of 0.01 to 0.1 µM.
The corresponding values for `CC(C)Oc1cccc(-c2cccc(-n3ncc(C(=O)O)c3C3CC3c3cn(C)nn3)c2)c1` (centres unmarked) [Example 59, 1-(3′-Isopropoxy-[1,1′-biphenyl]-3-yl)-5-(2-(1-methyl-1H-1,2,3-triazol-4-yl)cyclopropyl)-1H-pyrazole-4-carboxylic Acid] are 1 to 10 µM and 0.1 to 1 µM.
Take `CC1(C)CCc2cnn(-c3cccc(-c4cccc(-n5ncc(C(=O)O)c5C5CC5)c4)c3)c21` [Example 63, 5-Cyclopropyl-1-(3′-(6,6-dimethyl-5,6-dihydrocyclopenta[c]pyrazol-1(4H)-yl)-[1,1′-biphenyl]-3-yl)-1H-pyrazole-4-carboxylic Acid]: the EC50 in assay [1] lay within 0.1 to 1 µM. Further, the IC50 in assay [2] lay in the range of 0.1 to 1 µM.
For the compound `CC1(C)CCc2cnn(-c3cccc(-c4cccc(-n5ncc(C(=O)O)c5C(F)(F)F)c4)c3)c21` [Example 250, 1-(3′-(6,6-Dimethyl-5,6-dihydrocyclopenta[c]pyrazol-1(4H)-yl)-[1,1′-biphenyl]-3-yl)-5-(trifluoromethyl)-1H-pyrazole-4-carboxylic Acid], the EC50 in assay [1] was 0.1 to 1 µM. This compound displayed an IC50 in assay [2] of 10 to 100 µM.
The corresponding values for `C[C@@H]1CN(Cc2cccc(-c3cccc(-n4ncc(C(=O)O)c4[C@@H]4C[C@H]4c4cn(C)nn4)c3)c2)Cc2ccccc2O1` [Example 253] are 0.1 to 1 µM and 0.1 to 1 µM.
In the same order, the values of `CCOC[C@@H]1CCCN1C(=O)c1cccc(-c2cccc(-n3ncc(C(=O)O)c3[C@@H]3C[C@H]3c3cn(C)nn3)c2)c1F` [Example 267] are 0.1 to 1 µM and 0.01 to 0.1 µM.
The corresponding values for `CCOC[C@H]1CCCN1C(=O)c1cccc(-c2cccc(-n3ncc(C(=O)O)c3[C@@H]3C[C@H]3c3cn(C)nn3)c2)c1F` [Example 268] are 0.1 to 1 µM and 0.01 to 0.1 µM.
